Here are results for nine compounds from patent US12422427B2, “Compounds for treatment of diseases and methods of screening therefor” (Max-Planck-Gesellschaft zur Förderung der Wissenschaften …, priority 2018, dated 2025).

In data set [1] the test system is HeLa cells expressing FUS GFP. The experiment in a line: HeLa cell compound dose responses (FUS GFP, arsenate stress). Type of data set: cell-based. How it is done:
Small dilution steps rather than concentration replicates were selected as it provides greater statistical power from a set number of samples. Final DMSO concentration was 0.08% in all samples, and each plate included at least 12 control wells with 0.08% DMSO. Cytoplasmic FUS droplet number and nuclear/cytoplasm partition of FUS were analysed using custom macros in ImageJ. Nuclei were identified by intensity thresholding of the blue fluorescence image following a 5 px Gaussian blur. Cytoplasmic FUS droplets by intensity thresholding of the green image following a 10 px weight 0.9 unsharp filter masked by the thresholded nuclei, and nuclear FUS droplets by intensity thresholding of the green image following a 5 px weight 0.9 unsharp filter and 10 px rolling ball background subtraction masked to only include thresholded nuclei. The ratio of cytoplasmic FUS drops to nuclei was taken as cytoplasmic FUS droplets per cell per field of view, and p, the ratio of partition of FUS to the nucleus and the cytoplasm, was derived from a=Vn/vt, the ratio of nuclear to total green signal per field of view, where p=a/(1−a). […] Six fields of view were captured and analysed per condition.

For another data set, the system named is HeLa cells. The experiment in a line: 15N lipoamide uptake by HeLa cells measured by NMR. Type of data set: in vitro ADME. The following applies: for uptake of the lipoamide present in the medium: 100 μM, 1 h, 37° C., stressed or unstressed HeLa cells. As to the method:
The concentration of lipoamide relative to protein required for an effect on condensate liquidity in vitro was higher than the EC50 on cells, on the order of 100 μM lipoamide with 1 μM FUS (FIGS. 1D-1E, FIGS. 5A-5E). In cells, FUS concentrations are high for a protein (low μM)^41 and the cellular EC50 was on the order of 10 μM (FIG. 2A, FIG. 3D). We also saw inverse effects of lipoamide on FUS-containing condensates in vitro (more, larger condensates) and in cells (fewer stress granules). To reconcile this difference and to understand the relevance of the effects in vitro in cells, we wanted to know the actual concentrations of compounds in cells. In principle, isotopic labelling allows direct monitoring of isotopically-labelled compounds even in complex environment through appropriate spectroscopy. To use this approach, ^15N-labelled lipoamide (FIG. 7A) was synthesised.
Uptake of ^15N lipoamide by cells from the medium was quantified by NMR following incubation of lipoamide at 37° C. for 1 h either in the absence or presence of HeLa cells (FIG. 7B). Cellular uptake was determined by calculating the difference between medium incubated with cells or without cells for combinations of either R-(+) or (±)-lipoamide and either unstressed or stressed cells (FIG. 7C). For one sample, stressed cells with R-(+)-lipoamide, we confirmed that strong signal from the cell fraction was consistent with uptake of a large proportion of lipoamide (FIG. 7C). Both R-(+) and ±-lipoamide measurements indicated uptake of 35±11% (n=3 and 2, respectively) of the lipoamide present in the medium. No significant difference was observed either for uptake of R-(+) compared to (±)-lipoamide or stressed compared to unstressed cells (FIG. 7D).
For analysis of ^15N lipoamide uptake by cells HeLa cells expressing FUS GFP were grown in 6 well plates to 10^6 cells/well in DMEM supplemented with 10% FCS. To simultaneously stress and treat cells, the medium was replaced with 0.6 ml medium supplemented with potassium arsenate and 100 μM ^15N racemic or R-(+)-lipoamide for 1 h at 37° C. High concentrations of compound were used to maximise the signal. […] Wells were prepared for all combinations of no compound (1% DMSO control), ^15N […] or ^15N R-(+)-lipoamide, with or without potassium arsenate and with or without cells. ^1H detected ^15N edited ^1H sensitivity enhanced HSQ was used to quantify ^15N lipoamide concentration (see Supplementary Information). Solvent, pH and temperature sensitivity of the primary amide proton chemical shifts were determined using dummy samples assembled from the appropriate solvent and added compounds.
^1H detected ^15N edited ^1H sensitivity enhanced HSQC NMR (referred to here as (^15N) ^1H) spectra were acquired on a narrow bore Varian solution state spectrometer operating with a fixed field strength of 14.1 T, equipped with a room-temperature probe.
The free induction decay was recorded for an acquisition time of 0.0624 and a sweep with of 8 kHz recorded over 1000 and a recovery delays of 1 s. […] The J coupling between the amide protons and the ^15N in H2O samples was determined to be 96 Hz, and so the transfer times of 1/4 J in the INEPT portions of the pulse sequence were set to 2.6 ms. […]

The subject of data set [2] is FUS GFP localisation in stressed HeLa cells. In words: Ex vivo HeLa cell screen of FUS GFP localisation under arsenate stress. Type of data set: cell-based. Particulars: 10 μM compound 1 h pre-treatment, then 1 h 1 mM potassium arsenate. From the text:
The inventors developed a cell-based screen using a HeLa cell line that stably expresses GFP-tagged FUS at near-endogenous levels. While not required for stress granule formation, FUS is a well-characterised protein with a domain structure typical of stress granule proteins. In the absence of cellular stress, FUS-GFP primarily localizes to the nucleus, where it is partially excluded from the nucleolus and localises to small puncta called paraspeckles (FIG. 1A). These are nuclear droplets implicated in retaining RNA in the nucleus for rapid stress response. Cells were pre-treated with 10 μM compound from a compound library for 1 h, then the cells were stressed with 1 mM potassium arsenate (still in the presence of compound) (FIG. 1B) and monitored FUS localization to stress granules. Arsenate disrupts antioxidant responses by reacting with thiol groups, blocks the tricarboxylic acid (TCA) cycle by reacting with the thiols in vital lipoyl moieties and causes general oxidative damage. In untreated stressed cells, FUS is partly exported to the cytoplasm where, in combination with other proteins and mRNA, it phase separates to form liquid-like stress granules surrounded by cytoplasm depleted in FUS (FIG. 1A).
Many compounds affected stress granule formation. Multi-parameter image analysis, including cytoplasmic puncta number, nuclear puncta number, and nuclear/cytoplasm partition, was used to rank compounds by strength of effect on FUS localisation in stressed cells (FIG. 1C). […] These were the polysome stabilising compound emetine, which prevents release of mRNA, and the heavy metal chelating compound dimercaprol (which should sequester the stressor). Edaravone, thought to be an antioxidant and used as an ALS therapeutic in Japan and the US, had no effect on FUS localization in arsenate-stressed cells.
The effect of compounds on FUS GFP localisation in stressed HeLa cells was screened in 384 well format. 4000 cells were seeded per well and incubated for 24 h, after which the medium was replaced with 40 μl fresh medium and compound added to a final concentration of 10 μM by acoustic dispensing (Labcyte Echo 550). The final concentration of DMSO in all samples was 0.1%. […]
For the initial screen FUS GFP signal was analysed using KNIME. […] Particle number and sum area, granularity at 9, 10 & 11 px (cytoplasm) or 1, 5, 6, 7, 8 & 9 px (nucleus) scale, texture at 10 px scale and integrated signal intensity were measured for the nucleus and cytoplasm in the green (FUS GFP) channel. Z scores (z=(x−μ)/σ where x is the observed value, μ the control mean and σ the control standard deviation) relative to the DMSO treated control wells on each plate were calculated for each of the parameters, and combined into the Mahalanobis distance.

In the case of `O=C(O)CCCCC(S)CCS` (racemic) [(±)-dihydrolipoic acid, 6,8-dimercaptooctanoic acid], the “EC50 reducing stress granule number, compared among compounds” value in data set [1] (1 h 1 mM arsenate stress) is “comparable EC50”.
Consider `[15NH2]C(=O)CCCCC1CCSS1` (racemic) [±-lipoamide, ^15N (±)-Lipoamide], for which the “uptake of the lipoamide present in the medium” value in the data set with HeLa cells came out at 35±11%.
On to `SCCCS` [1,3-propanedithol, 1,3-propanedithiol, reference compound], for which the “effect on stress granule number” value in data set [1] (up to 100 μM) is recorded as “no effect”.
Turning to `CC1=NN(c2ccccc2)C(=O)C1` [Edaravone], in data set [2], the “effect on stress granules / FUS localisation in stressed cells” value is “no effect”.
For the compound `[15NH2]C(=O)CCCC[C@@H]1CCSS1` [R-(+)-lipoamide, ^15N R-(+)-Lipoamide], the “uptake of the lipoamide present in the medium” value with HeLa cells is 35±11%.
For `NC(=O)CCCCC1CCSS1` (stereo not drawn) [^15N lipoamide], in the data set on HeLa cells (calculated from percentage uptake, number of cells and their volume), the average intracellular concentration is 5.0 ± 1.6 mM.
`OCC(S)CS` (stereo not drawn) [dimercaprol]: the “effect on stress granules / FUS localisation in stressed cells” value in data set [2] is recorded as “reduction of stress granules”.
On the same count and under the same terms, under `CC[C@H]1CN2CCc3cc(OC)c(OC)cc3[C@@H]2C[C@@H]1C[C@H]1NCCc2cc(OC)c(OC)cc21` [emetine] stands “reduction of stress granules”; under `CC1=CC(=O)c2ccccc2C1=O` [menadione], “did not reduce stress granule number”.
